# Laboratory results taken from patent US6211173A, “Use of 2,3,4,5-tetrahydro-1H-3-benzazepines for the manufacture of a pharmaceutical composition for the treatment of sleep disorders” (Cenes Limited, priority 1997, dated 2001).
# Columns and labels:
# [1] = Serum concentration following oral administration in men (pharmacokinetic experiments); format: in vivo
# Protocol: NNC 0756 (80 mg) and another dopamine D1 receptor antagonist, the compound of Example 4 (25 mg), were administered to two and three men, respectively. Serum concentrations of the compounds were measured 1.5 and 6.0 hours following oral administration of the compound of Example 4 and 1.5 and 8.0-8.8 hours following oral administration of NNC 0756.
# [2] = tested on: dopamine D1 receptor; details: preclinical, rat; cited from earlier work
# [3] = background statement, no test described; cited from earlier work
# [4] = tested on: dopamine D1 receptor; details: preclinical, rat; cited from earlier work; remark: listed apart in the source
smiles,measurement,setting,value
"CN1CCc2cc([N+](=O)[O-])c(O)cc2C(c2cccc3c2OCC3)C1 (single isomer, unassigned; (+)) [Example 4, (+)-5-(2,3-dihydrobenzofuran-7-yl)-7-hydroxy-3-methyl-8-nitro-2,3,4,5-tetrahydro-1H-3-benzazepine]",serum concentration of the compound of Example 4 relative to the serum concentration measured 1.5 hours after drug administration,"[1]; 25 mg oral, three men, 6 hours after administration vs 1.5 hours",about 10%
same,elimination time compared to NNC 0756,[1]; compared to the kinetic profile of NNC 0756,shorter elimination time
"CN1CCc2cc(Cl)c(O)cc2C(c2cccc3c2OCC3)C1 (single isomer, unassigned; (+)) [NNC 0756, (+)-8-chloro-7-hydroxy-3-methyl-5-(2,3-dihydrobenzofuran-7-yl)-2,3,4,5-tetrahydro-1H-3-benzazepine]",REM and non-REM sleep,[2],increase in both REM and non-REM sleep
same,time spent in sleep,[2],markedly enhance the time spent in sleep
same,serum concentration of NNC 0756 relative to the serum concentration measured 1.5 hours after administration,"[1]; 80 mg oral, two men, 8.0-8.8 hours after administration vs 1.5 hours",about 35%
same,half life,[3],relatively long half life
Oc1cc2c(cc1O)C(c1ccccc1)CNCC2 (centres unmarked) [SKF 38393],amount of REM sleep,[4],reduced the amount of REM sleep
same,duration of wakefulness,[4],increased the duration of wakefulness
